{"source": "patent US9303249B2", "about": "“High concentration α-glucosidase compositions for the treatment of Pompe disease” (Amicus Therapeutics, Inc., priority 2012, dated 2016)", "key": {"[1]": {"molecular_target": "T1, recombinant human GAA (Myozyme®) (Homo sapiens, UniProt P10253)", "T1 construct": "purchased Genzyme Corp; host or cells: Chinese hamster ovary cell line", "assay": "SYPRO Orange thermal stability assay", "type": "binding", "protocol": "The thermal stability assay utilizes heat to induce protein denaturation, which is monitored using a SYPRO Orange dye that fluoresces upon binding to hydrophobic amino acids (which are not exposed in a folded protein).\nDenaturation is monitored using a SYPRO Orange dye that fluoresces upon binding to hydrophobic amino acids (which are not exposed in a folded protein).\nThe thermal stability was performed at pH 7.4 for two formulations, which corresponds to the pH of the ER."}, "[2]": {"molecular_target": "T2, GAA (Homo sapiens, UniProt P10253)", "assay": "GAA levels in cell lines derived from late-onset Pompe patients", "type": "cell-based", "parameters": "endogenous in cells", "details": "cell lines with IVS 1 (−13 T>G) splicing mutation"}, "[3]": {"molecular_target": "T2, GAA", "assay": "rhGAA enzyme inactivation in whole blood at 37° C.", "type": "in vitro ADME", "parameters": "purchased Genzyme Corp; host or cells: Chinese hamster ovary cell line", "details": "for enzyme inactivated: whole blood 37° C., no 1-DNJ-HCl", "protocol": "Aliquots were collected at 0, 2, 4, 8 and 24 hrs and centrifuged to obtain plasma. These plasma samples were then diluted in potassium acetate buffer (pH 4.0) and assayed for GAA activity using the 4-methylumbeliferyl-α-glucose (4-MUG) fluorogenic substrate. The measured GAA activity for individual samples at each time point was normalized to the 0 hr and expressed as % of initial activity. Data from 4 independent experiments were analyzed to obtain the mean (and standard deviation) and plotted versus time to assess the loss of enzyme activity over this time course.\nAliquots were collected at 0, 3 and 6 hrs and centrifuged to obtain plasma. These plasma samples were then diluted in potassium acetate buffer (pH 4.0) and assayed for GAA activity using the 4-methylumbeliferyl-α-glucose (4-MUG) fluorogenic substrate. The measured GAA activity for individual samples at each time point was normalized to the 0 hr and expressed as % of initial activity.\nMoreover, since Myozyme® has a long plasma half-life (reported to be more than 3 hrs), there is a high probability that an appreciable amount of the enzyme remains in the circulation many hours after the infusion that would also be prone to inactivation.\nBased on human plasma PK data, these concentrations are readily obtainable in the clinic."}, "[4]": {"assay": "Aggregation of 25 mg/mL Myozyme® at pH 7.4 and 37° C. (Example 10)", "type": "physicochemical", "details": "1 mM DNJ, PBS pH 7.4, 4 weeks at 37° C.", "protocol": "Aggregation was assessed after a 4 week incubation period.\nA liquid formulation comprising DNJ and GAA was prepared by dissolving DNJ in water to achieve a concentration of 10 mM DNJ. GAA was reconstituted in 1.8 ml water, and dialyzed overnight in phosphate buffered-saline (pH 7.4). […] of DNJ (10 mM) was then be added to 400 microliters of GAA, such that the GAA was at a concentration of 25 mg/ml.\n25 mg/mL Myozyme® was incubated with or without 1 mM DNJ in phosphate-buffered saline at pH 7.4. Aggregation of Myozyme® was assessed after incubation for 4 weeks at 37° C."}, "[5]": {"assay": "Circulating rhGAA after subcutaneous DNJ co-formulated with Myozyme® (FIG. 14)", "type": "in vivo", "details": "DNJ co-formulated with 20 mg/kg Myozyme® vs Myozyme® without DNJ"}, "[6]": {"tested_on": "GAA KO mice", "assay": "Tissue glycogen reduction in GAA KO mice, Myozyme® IV with or without oral 1-DNJ-HCl (Example 9)", "type": "in vivo, mouse", "protocol": "Twelve-week old male GAA KO mice were administered a single dose of Myozyme® (40 mg/kg) via bolus tail vein injection every other week for 8 weeks. To prevent anaphylaxis, before the third and fourth Myozyme® injection, diphenhydramine (10 mg/kg intraperitoneally) was administered 10 min before Myozyme® injection. […] Mice were euthanized 14 days after the last Myozyme® administration.\nGlycogen levels in heart, diaphragm, soleus, and quadriceps were then measured. […] Briefly, homogenates were prepared by homogenizing ˜50 mg tissue for 3-5 seconds on ice with a microhomogenizer in 200 μL deionized water. Supernatants were heat denatured (99° C. for 10 min) to remove endogenous amyloglucosidase activity. Denatured lysates (4 μL) were then analyzed in duplicate by addition of 36 μL water with and without 10 μL of 800 U/mL of amyloglucosidase (Sigma Aldrich, St. Louis, Mo.) and incubated for 1 hour at 50° C. The reaction was stopped by inactivation at 100° C. for 10 min. Finally, 200 μL of glucose reagent (Sigma) was added absorbance read at 340 nm on Spectramax. A standard curve ranging from 5 μg/mL to 400 μg/mL Type III rabbit liver glycogen (Sigma) was run each day for conversion of absorbance to absolute glycogen units. Simultaneously, the amount of protein was determined in tissue homogenates using the Micro BCA Protein Assay (Pierce, Rockford, Ill.) following the manufacturer's instructions. The glycogen content of each sample was normalized to protein, and data were finally expressed as micrograms of glycogen per milligram of protein (μg/mg protein)."}, "[7]": {"tested_on": "GAA KO mice", "assay": "Tissue rhGAA activity after repeat IV Myozyme® in GAA KO mice", "type": "in vivo, mouse", "details": "20 mg/kg IV bolus, 4 doses at 2 week intervals, 3 days after last dose", "source_text": "(§1) Mice were euthanized 3 days after the last administration for tissue GAA activity measurement and 14 days after the administration for glycogen measurement. Data was compared with uptake (on day 3) and glycogen reduction (on day 14) of historical Lumizyme® IV alone study. Tissue samples included heart, diaphragm, tongue, ventral skin (non-injection site), skin from the hind limb injection site, skin from the shoulder SQ injection site, left and right limb muscles (biceps, triceps, quadriceps, soleus and gastrocnemius). GAA activities in tissues were determined using a 4-MUG fluorogenic substrate assay. Glycogen levels were determined using a glycogen assay (see Example 9 for method).\nFor both studies, the enzyme activities in tissues were assessed three days after the last (fourth) administration."}, "[8]": {"tested_on": "GAA KO mice", "assay": "Tissue glycogen reduction after repeat IV Myozyme® in GAA KO mice", "type": "in vivo, mouse", "details": "20 mg/kg IV bolus, 4 administrations at two-week intervals, 14 days after last", "source_text": "as §1"}, "[9]": {"details": "rat, iv", "protocol": "Four groups of rats were administered one of the following dosing regimens:\n(2) 10 mg/kg of rhGAA+Water;"}}, "note": "Where a name gives a salt, the structure may show the parent alone."}
{"compound": "OC[C@H]1NC[C@H](O)[C@@H](O)[C@@H]1O", "note": "[1-DNJ-HCl, 1-deoxynojirimycin hydrochloride]", "values": [{"measurement": "thermal stability of rhGAA (heat to denature)", "setting": "[1]; 100 μM 1-DNJ-HCl, pH 7.4, vs formulation without ASSC", "result": "required significantly more heat to denature"}, {"measurement": "GAA thermostability (melting temperature)", "setting": "[1]; Myozyme® plus 1, 10, 100 μM 1-DNJ-HCl", "result": "increases GAA thermostability"}, {"measurement": "GAA levels", "setting": "[2]", "result": "increased GAA levels alone and in combination with hrGAA"}, {"measurement": "loss of rhGAA activity", "setting": "[3]; 2.5 μM 1-DNJ-HCl, whole blood, 6-hr time course", "result": "~20", "unit": "%"}, {"measurement": "rhGAA activity in whole blood", "setting": "[3]; 50 μM 1-DNJ-HCl, 37° C., up to 24 hrs", "result": "remained completely active throughout the study"}]}
{"compound": "OC[C@H]1NC[C@H](O)[C@@H](O)[C@@H]1O", "note": "[DNJ, 1-deoxynojirimycin]", "values": [{"measurement": "aggregation of Myozyme®", "setting": "[4]", "result": "reduced aggregation of Myozyme®"}, {"measurement": "circulating levels of rhGAA", "setting": "[5]", "result": "increased the circulating levels of rhGAA"}]}
{"compound": "Myozyme®: alglucosidase alfa, recombinant human acid α-glucosidase from Genzyme Corporation", "values": [{"measurement": "Glycogen reduction relative to untreated mice", "setting": "[6]; diaphragm, same regimen", "result": "41±4", "unit": "%"}, {"measurement": "Glycogen reduction relative to untreated mice", "setting": "[6]; heart, Myozyme® 40 mg/kg IV every other week for 8 weeks, +/- 30 mg/kg oral 1-DNJ-HCl", "result": "93±1", "unit": "%"}, {"measurement": "Glycogen reduction relative to untreated mice", "setting": "[6]; quadriceps, same regimen", "result": "18±4", "unit": "%"}, {"measurement": "Glycogen reduction relative to untreated mice", "setting": "[6]; soleus, same regimen", "result": "69±3", "unit": "%"}, {"measurement": "rhGAA activity uptake", "setting": "[7]; Biceps", "result": 10.1, "unit": "nmol/mg/h"}, {"measurement": "rhGAA activity uptake", "setting": "[7]; Diaphragm", "result": 7.1, "unit": "nmol/mg/h"}, {"measurement": "rhGAA activity uptake", "setting": "[7]; Gastrocnemius", "result": 17.9, "unit": "nmol/mg/h"}, {"measurement": "rhGAA activity uptake", "setting": "[7]; Heart", "result": 1.8, "unit": "nmol/mg/h"}, {"measurement": "rhGAA activity uptake", "setting": "[7]; Quadriceps", "result": 6.9, "unit": "nmol/mg/h"}, {"measurement": "rhGAA activity uptake", "setting": "[7]; Skin", "result": 27.1, "unit": "nmol/mg/h"}, {"measurement": "rhGAA activity uptake", "setting": "[7]; Soleus, 20 mg/kg", "result": 8.0, "unit": "nmol/mg/h"}, {"measurement": "rhGAA activity uptake", "setting": "[7]; Soleus, listed as rhGAA (Myozyme), 20 mg/kg", "result": 8, "unit": "nmol/mg/h"}, {"measurement": "rhGAA activity uptake", "setting": "[7]; Tongue", "result": 12.4, "unit": "nmol/mg/h"}, {"measurement": "rhGAA activity uptake", "setting": "[7]; Triceps", "result": 3.9, "unit": "nmol/mg/h"}, {"measurement": "Glycogen reduction (% of untreated)", "setting": "[8]; Biceps", "result": 5, "unit": "%"}, {"measurement": "Glycogen reduction (% of untreated)", "setting": "[8]; Diaphragm", "result": 19, "unit": "%"}, {"measurement": "Glycogen reduction (% of untreated)", "setting": "[8]; Gastrocnemius", "result": 15, "unit": "%"}, {"measurement": "Glycogen reduction (% of untreated)", "setting": "[8]; Heart", "result": 51, "unit": "%"}, {"measurement": "Glycogen reduction (% of untreated)", "setting": "[8]; Quadriceps", "result": 8, "unit": "%"}, {"measurement": "Glycogen reduction (% of untreated)", "setting": "[8]; Skin, 20 mg/kg", "result": "No reduction"}, {"measurement": "Glycogen reduction (% of untreated)", "setting": "[8]; Skin, listed as rhGAA (Myozyme), 20 mg/kg", "result": "No"}, {"measurement": "Glycogen reduction (% of untreated)", "setting": "[8]; Tongue", "result": 54, "unit": "%"}, {"measurement": "Glycogen reduction (% of untreated)", "setting": "[8]; Triceps", "result": 4, "unit": "%"}]}
{"compound": "rhGAA: recombinant human acid α-glucosidase (e.g., Myozyme®)", "values": [{"measurement": "in vivo half life of rhGAA", "setting": "[9]", "result": "1.4 ± 0.2", "unit": "h"}, {"measurement": "enzyme inactivated", "setting": "[3]; by 4 hrs", "result": "approximately 40%"}, {"measurement": "enzyme inactivated", "setting": "[3]; by 8 hrs", "result": "~70", "unit": "%"}, {"measurement": "enzyme inactivated", "setting": "[3]; by 24 hrs", "result": "~100", "unit": "%"}]}
